Results taken from patent US9376449B2, “Indole carboxamide derivative” (Astellas Pharma Inc., priority 2012, dated 2016).
pEC50: −log10 of the molar value.

Columns and labels:
[1] = tested on: urethral pressure; assay: Effect of test compound on urethral pressure in anesthetized rats; format: in vivo, rat; conditions: for Increment value in the urethra pressures (mmHg): 0.1 mg/kg intravenously, urethane-anesthetized SD female rats; for urethra pressure increasing action: dose of 0.1 mg/kg
Text: Test Example 3 Test to Evaluate Effect of Test Compound on Urethral Pressure
It has been reported that an increase in the urethra pressure is useful for the treatment of urinary incontinence, particularly stress urinary incontinence (for example, Drugs, 64, 14, 1503-1516 (2004)). In order to confirm whether the compound of the present invention increases the urethra pressure and thus is useful for the treatment of urinary incontinence, particularly stress urinary incontinence, the following tests were carried out.
SD female rats were anesthetized with urethane and subjected to laparotomy. Then, the bladder apex was incised and a catheter was inserted from the bladder apex. Further, the catheter tip was ligated and fixed to be located in the proximal urethra portion. The catheter was connected to a pressure transducer and an infusion pump. Further, a catheter for administrating the compound was fitted into the femoral vein. Physiological saline was continuously infused into the urethra and the perfusion pressure in the urethra was measured. After the urethral pressure was stabilized, the test compound that had been dissolved in physiological saline, or physiological saline including 5% dimethylacetamide and 0.5% Cremophor was administered intravenously at 0.1 mg/kg, and a change in urethral pressures was measured.
Further, the results of administering an active metabolite of midodrine (ST-1059: purchased from CHEMIZON) (J. Urology, 118, 980-982 (1977)) which is an α1 adrenoceptor agonist and has an effect on stress urinary incontinence in rat doses (0.01 mg/kg) presumed to correspond to the clinical doses are referenced and shown in the Tables below. The increment value in the urethra pressures of ramelteon and the Example compounds of the present invention at the time of administration are shown in Table 4. Ex represents Example No. of the test compound.

[2] = molecular target: T1, human MT2 receptor (Homo sapiens, UniProt P49286); assay: Activation of human MT2 receptor in receptor-expressing HEK293 cells (intracellular Ca2+, FLIPR); format: cell-based; conditions: for Emax: HEK293, maximum reaction by ramelteon taken as 100%, solvent only 0%; for pEC50: HEK293 cells stably expressing human MT2 and Gq/i chimeric G-protein, intracellular Ca2+ by FLIPR
T1 sequence (P49286 1-362): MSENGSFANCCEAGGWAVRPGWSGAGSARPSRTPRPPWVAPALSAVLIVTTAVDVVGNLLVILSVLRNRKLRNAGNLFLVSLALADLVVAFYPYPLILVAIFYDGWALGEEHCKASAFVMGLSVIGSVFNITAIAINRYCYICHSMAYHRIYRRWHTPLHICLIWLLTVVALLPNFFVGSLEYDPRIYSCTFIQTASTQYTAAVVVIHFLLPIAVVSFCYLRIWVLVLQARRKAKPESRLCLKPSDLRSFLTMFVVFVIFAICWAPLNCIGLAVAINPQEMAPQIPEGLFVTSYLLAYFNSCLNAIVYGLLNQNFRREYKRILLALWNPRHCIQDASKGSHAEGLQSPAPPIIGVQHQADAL
Protocol: (1) Isolation of Human MT1 and MT2 Receptor and Construction of Expression Vector
A human MT1 receptor gene (GenBank Accession No.: NM_005958.3) and a human MT2 receptor gene (GenBank Accession No.: NM_005959.3) were each introduced into an expression vector pCDNA3.1/Zeo (Invitrogen, Inc.).
(2) Construction of Cells Stably Expressing Human MT1 and Human MT2 Receptor
The introduction was carried out according to the attached instructions, using a Lipofectoamine (registered trademark) 2000 Reagent (Invitrogen, Inc.). Zeocin and hygromycin were used as a resistant drug, and the cell was incubated for 15 days at 0.02 mg/mL and 0.05 mg/mL, respectively, thereby acquiring drug-resistant clones.
(3) Measurement of Intracellular Ca^2+ Concentration by FLIPR (Registered Trademark)
The respective stably expressing cells were dispensed into 96-well poly-D-lysine-coated plates (Falcon Co.) to 40,000 cells/well the day before the experiment, and incubated overnight in a DMEM (Invitrogen, Inc.) medium including 10% FBS at 37° C. and 5% CO2. The medium was replaced with a loading buffer (washing solution (Hank's balanced salt solution (HBSS), 20 mM HEPES-NaOH, 2.5 mM probenecid) including Fluo-4AM (Dojindo Co.) at 4 μM), and incubated for 1 hour at 37° C. and 5% CO2. Thereafter, the cells were washed with a plate washer (ELx405, BIO-TEK Instrument, Inc.) set with the washing solution, and set in an intracellular Ca^2+ concentration measuring systems (FLIPR (registered trademark), Molecular Device Co.). The test compound was dissolved in the washing solution in advance, diluted to a final concentration of −12 to −5 log M, set in a FLIPR (registered trademark) device together with the cells, and added to the cells in the device. At this time, a change in the intracellular Ca^2+ concentrations was measured.
(§1) Ex represents Example No. of the test compound.

[3] = tested on: isolated urethra; assay: Isolated urethra contractile action; design: species or system rat; conditions: for activation at 1 µM: test compound at 1 μM, contractile response by 10 μM phenylephrine as 100%, SD female rat urethra, read-out: Isolated urethra contraction (%)
Protocol: Test Example 2 Isolated Urethra Contractile Action
(1) Evaluation Test on Urethra Contractile Action of Test Compound Using Isolated Urethra
The urethra was isolated from an SD female rat having a body weight of 100 to 500 g. The isolated urethra was incised longitudinally to give a rectangular strip specimen having a width of about 3 mm, which was suspended in the circular muscle direction in 10 mL of a tissue bath filled with a Krebs-Henseleit solution (pH 7.4). The Krebs-Henseleit solution was bubbled with 95% O2 and 5% CO2, and kept at 37° C. The resting tension was set to 0.5 g to record the isometric contraction. After the resting tension was stabilized, contraction was elicited by the addition of 10 μM phenylephrine. After washing and stabilizing, the test compound was added cumulatively to a final concentration of −12 to −5 log M to measure a contractile response. By taking the contractile response by 10 μM phenylephrine as 100%, the ratio of the contractile response in the concentration of the test compound at 1 μM was calculated.
as §1

| Emax [2] | pEC50 [2] | Structure (SMILES) | Increment value in the urethra pressures (mmHg) [1] | urethra pressure increasing action ([1]; in words) | activation at 1 µM [3] | increment value in the urethra pressures compared with ST-1059 ([1]; 0.1 mg/kg i.v. versus ST-1059 0.01 mg/kg, in words) | urethra contractile action ([3]; isolated rat urethra, in words) |
| --- | --- | --- | --- | --- | --- | --- | --- |
| 109% | 7.55 | CNC(=O)c1[nH]c2ccc(OC)cc2c1CCNC(=O)C(F)F [Ex 2, 3-{2-[(difluoroacetyl)amino]ethyl}-5-methoxy-N-methyl-1H-indole-2-carboxamide] | 10.6 ± 3.5 mmHg | good urethra pressure increasing action | 167% |  |  |
| 94% | 7.24 | CNC(=O)c1[nH]c2cc(F)c(OC)cc2c1CCNC(C)=O [Ex 17] | 9.0 ± 1.0 mmHg | good urethra pressure increasing action | 132% |  |  |
| 100% | 8.96 | CCC(=O)NCC[C@@H]1CCc2ccc3c(c21)CCO3 [Ramelteon, reference compound] | 11.1 ± 1.7 mmHg |  | 242% | equal to or more than that of ST-1059 | good urethra contractile action |
